Experimental data reported in US20080280837A1, “Biologically Active Compounds with Anti-Angiogenic Properties” (priority 2004, published 2008).

Each molecule was assayed against T1, Human SST5 somatostatin receptor (SSTR5) (Homo sapiens, UniProt P35346) (assay: Filter plate assay for SST5 receptor, displacement of [125I]SST-14). Conditions: 0.5 uM.
T1 construct: expressed in transfected cells; host or cells: HEK-293 EBNA
T1 sequence (P35346 whole entry): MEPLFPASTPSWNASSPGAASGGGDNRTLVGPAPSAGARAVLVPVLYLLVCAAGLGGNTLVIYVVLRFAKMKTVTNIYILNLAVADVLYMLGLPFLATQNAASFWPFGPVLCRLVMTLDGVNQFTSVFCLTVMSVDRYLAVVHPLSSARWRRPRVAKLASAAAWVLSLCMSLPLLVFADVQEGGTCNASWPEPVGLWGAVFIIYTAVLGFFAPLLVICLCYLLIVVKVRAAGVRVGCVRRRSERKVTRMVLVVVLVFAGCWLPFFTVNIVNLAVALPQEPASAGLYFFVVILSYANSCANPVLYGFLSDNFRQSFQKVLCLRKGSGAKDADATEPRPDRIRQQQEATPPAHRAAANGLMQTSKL
Format: binding
Experimental: Receptor membrane preparations containing the desired cloned receptor (for example cloned human somatostatin receptor subtype 5, SSTR5) and radio-labeled ligand (for example 3-[^125I]iodotyrosyl^11 Somatostatin-14)) were diluted at the concentration required for testing and according to the specific parameters associated with the selected receptor-ligand combination, including receptor Bmax, ligand Kd and any other parameters necessary to optimize the experimental conditions. When tested for competition activity to the reference ligand, “compound 1” was mixed with membrane suspension and the radiolabeled reference ligand (with or without an excess of cold ligand to the receptor for determination of non-specific binding) and incubated at the temperature required by internal standard operating procedures. Following incubation, the binding reaction was stopped by the addition of ice-cold washing buffer and filtered on appropriate filters, which are then counted. Data analysis and curve-fitting was performed with XLfit (IDBS).
10 mM solutions of test compounds in 100% DMSO were prepared. ˜160 μl was used for each dilution (20 μl/well in triplicate).
A 1.25 mM assay stock was prepared by making a 1:8 dilution of the 10 mM solution. (To 30 μL of the 10 mM solution was added 210 μL milli-Q H2O. A 1:5 dilution series in milli-Q H2O was then prepared.
Assays were performed in triplicate at each concentration within the 1:5 dilution series: 250 μM, 50 μM, 10 μM, […], 0.4 μM, 0.08 μM, 0.016 μM, 0.0032 μM, etc. (for SST4 assay) and 125 μM, 10 μM, 2 μM, 1 μM, 0.5 μM, etc (for SST5 assay).
Human SST5 somatostatin receptor was transfected into HEK-293 EBNA cells. Membranes were suspended in assay buffer (50 mM Tris-HCl, 1 mM EGTA, 5 mM MgCl2, 10% sucrose, pH 7.5).
After thawing the frozen receptor preparation rapidly, receptors were diluted with binding buffer, homogenized, and kept on ice. • 1. Use Multiscreen glass fiber filter plates (Millipore, Cat No MAFCNOB10) precoated with o.5% PEI for ˜2 hr at 4° C. Before use add 200 μl/well assay buffer and filter using Multiscreen Separation System. • 2. Incubate 5.5 μg of membranes (40 μl of a 1:40 dilution), buffer and [^125I]SST-14 (4 nM, ˜80 000 cpm, 2000 Ci/mmol) in a total volume of 200 μl for 60 min at 25° C. […] Prepare serial dilutions (1:5) of compounds, as described above and instead of adding SST-14 in well, add 20 μl of compounds (Table 1). • 3. Filter using Multiscreen Separation System with 5×0.2 ml ice-cold Assay buffer. • 4. Remove the plastic underdrain and dry plate in oven for 1 hr at 40° C. • 5. Seal tape to the bottom of the plate. • 6. Add 50 μl/well scintillant (Supermix, Wallac, Cat No 1200-439). • 7. Seal and count in the BJET, program 2.
In primary screening experiments compounds were tested in duplicate for a particular concentration.
`COC[C@H]1OC(OCCc2ccccc2)[C@H](NC(=O)CCN)[C@H](OCc2ccc(Cl)cc2)[C@@H]1O` (stereo partly shown) [Compound 34] was tested, and the “SSTR5 Inhib 0.5 uM % (inhibition of binding of SST-14 to SSTR5)” value (“SSTR5 Inhib 0.5 uM %” below) was 61%.
`COC[C@H]1OC(OCc2ccc3ccccc3c2)[C@H](NC(=O)CCNC(=N)N)[C@H](OCc2ccc(Cl)cc2)[C@@H]1O` (stereo partly shown) [Compound 35] was tested, and the “SSTR5 Inhib 0.5 uM %” value was 60%.
With `COC[C@H]1OC(OCc2ccc3ccccc3c2)[C@H](NC(=O)CCNC(=N)N)[C@H](OCc2ccc(-c3ccccc3)cc2)[C@@H]1O` (stereo partly shown) [Compound 36] the “SSTR5 Inhib 0.5 uM %” value was 67%.
`COC[C@H]1OC(OCc2ccccc2)[C@H](NC(=O)CCN)[C@H](OCc2ccc3ccccc3c2)[C@@H]1O` (stereo partly shown) [Compound 37] was tested, and the “SSTR5 Inhib 0.5 uM %” value was 81%.
In the case of `COC[C@H]1OC(OCc2ccc(-c3ccccc3)cc2)[C@H](NC(=O)CCCN)[C@@H](OCc2ccc3ccccc3c2)[C@@H]1O` (stereo partly shown) [Compound 38], the “SSTR5 Inhib 0.5 uM %” value is reported as 79%.
In the case of `COC[C@H]1OC(OCc2ccc(Cl)cc2)[C@H](NC(=O)CCN)[C@H](OCc2ccc(Cl)cc2)[C@@H]1O` (stereo partly shown) [Compound 39], the “SSTR5 Inhib 0.5 uM %” value is reported as 74%.
For `COC1C(O)C(COCc2ccc(-c3ccccc3)cc2)OC(OCc2ccc(Cl)cc2)C1NC(=O)CCCN` (stereo not shown) [Compound 40], the “SSTR5 Inhib 0.5 uM %” value was 66%.
With `COC[C@H]1OC(OCc2ccc(Cl)cc2)[C@H](NC(=O)CCCN)[C@H](OCc2ccc(Cl)cc2)[C@@H]1O` (stereo partly shown) [Compound 41] the “SSTR5 Inhib 0.5 uM %” value was 83%.
With `COC[C@H]1OC(OCCc2ccccc2)[C@H](NC(=O)CCCN)[C@@H](OCc2ccc(Cl)cc2)[C@@H]1O` (stereo partly shown) [Compound 42] the “SSTR5 Inhib 0.5 uM %” value was 77%.
For `COC[C@H]1OC(OCc2ccc3ccccc3c2)[C@H](NC(=O)CCCN)[C@H](OCc2ccc(-c3ccccc3)cc2)[C@@H]1O` (stereo partly shown) [Compound 43], the “SSTR5 Inhib 0.5 uM %” value was 68%.
In the case of `COC[C@H]1OC(OCCc2ccccc2)[C@H](NC(=O)CCCN)[C@@H](OCc2ccc3ccccc3c2)[C@@H]1O` (stereo partly shown) [Compound 44], the “SSTR5 Inhib 0.5 uM %” value is reported as 78%.
`CSC1O[C@H](COCc2ccccc2)[C@@H](O)[C@@H](OCc2ccc(Cl)cc2)[C@H]1NC(=O)CNC(=N)N` (stereo partly shown) [Compound 45] was tested, and the “SSTR5 Inhib 0.5 uM %” value was 71%.
With `COC[C@H]1OC(OCc2ccccc2)[C@H](NC(=O)CCCN)[C@H](OCc2ccc(-c3ccccc3)cc2)[C@@H]1O` (stereo partly shown) [Compound 46] the “SSTR5 Inhib 0.5 uM %” value was 71%.
In the case of `COC[C@H]1OC(OCc2ccc3ccccc3c2)[C@H](NC(=O)CCCN)[C@@H](OCc2ccc(Cl)cc2)[C@@H]1O` (stereo partly shown) [Compound 47], the “SSTR5 Inhib 0.5 uM %” value is reported as 68%.
With `COC[C@H]1OC(OCc2ccc(Cl)cc2)[C@H](NC(=O)CCCN)[C@@H](OCc2ccc3ccccc3c2)[C@@H]1O` (stereo partly shown) [Compound 48] the “SSTR5 Inhib 0.5 uM %” value was 66%.
`CSC1O[C@H](COCc2ccc(Cl)cc2)[C@@H](O)[C@@H](OCc2ccc3ccccc3c2)[C@H]1NC(=O)CCCNC(=N)N` (stereo partly shown) [Compound 49] was tested, and the “SSTR5 Inhib 0.5 uM %” value was 60%.
For `COC[C@H]1OC(OCc2ccc(Cl)cc2)[C@H](NC(=O)CCNC(=N)N)[C@H](OCc2ccc3ccccc3c2)[C@@H]1O` (stereo partly shown) [Compound 50], the “SSTR5 Inhib 0.5 uM %” value was 74%.

Same assay, conditions: 10 uM
With `COC[C@H]1OC(OCCc2ccccc2)[C@H](NC(=O)CCN)[C@H](OCc2ccc(Cl)cc2)[C@@H]1O` (stereo partly shown) [Compound 34] the “SSTR5 Inhib 10 uM % (inhibition of binding of SST-14 to SSTR5)” value (from here on “SSTR5 Inhib 10 uM %”) was 95%.
In the case of `COC[C@H]1OC(OCc2ccc3ccccc3c2)[C@H](NC(=O)CCNC(=N)N)[C@H](OCc2ccc(Cl)cc2)[C@@H]1O` (stereo partly shown) [Compound 35], the “SSTR5 Inhib 10 uM %” value is reported as 95%.
For `COC[C@H]1OC(OCc2ccc3ccccc3c2)[C@H](NC(=O)CCNC(=N)N)[C@H](OCc2ccc(-c3ccccc3)cc2)[C@@H]1O` (stereo partly shown) [Compound 36], the “SSTR5 Inhib 10 uM %” value was 95%.
In the case of `COC[C@H]1OC(OCc2ccccc2)[C@H](NC(=O)CCN)[C@H](OCc2ccc3ccccc3c2)[C@@H]1O` (stereo partly shown) [Compound 37], the “SSTR5 Inhib 10 uM %” value is reported as 95%.
`COC[C@H]1OC(OCc2ccc(-c3ccccc3)cc2)[C@H](NC(=O)CCCN)[C@@H](OCc2ccc3ccccc3c2)[C@@H]1O` (stereo partly shown) [Compound 38] was tested, and the “SSTR5 Inhib 10 uM %” value was 95%.
With `COC[C@H]1OC(OCc2ccc(Cl)cc2)[C@H](NC(=O)CCN)[C@H](OCc2ccc(Cl)cc2)[C@@H]1O` (stereo partly shown) [Compound 39] the “SSTR5 Inhib 10 uM %” value was 95%.
`COC1C(O)C(COCc2ccc(-c3ccccc3)cc2)OC(OCc2ccc(Cl)cc2)C1NC(=O)CCCN` (stereo not shown) [Compound 40] was tested, and the “SSTR5 Inhib 10 uM %” value was 95%.
For `COC[C@H]1OC(OCc2ccc(Cl)cc2)[C@H](NC(=O)CCCN)[C@H](OCc2ccc(Cl)cc2)[C@@H]1O` (stereo partly shown) [Compound 41], the “SSTR5 Inhib 10 uM %” value was 94%.
With `COC[C@H]1OC(OCCc2ccccc2)[C@H](NC(=O)CCCN)[C@@H](OCc2ccc(Cl)cc2)[C@@H]1O` (stereo partly shown) [Compound 42] the “SSTR5 Inhib 10 uM %” value was 94%.
For `COC[C@H]1OC(OCc2ccc3ccccc3c2)[C@H](NC(=O)CCCN)[C@H](OCc2ccc(-c3ccccc3)cc2)[C@@H]1O` (stereo partly shown) [Compound 43], the “SSTR5 Inhib 10 uM %” value was 94%.
`COC[C@H]1OC(OCCc2ccccc2)[C@H](NC(=O)CCCN)[C@@H](OCc2ccc3ccccc3c2)[C@@H]1O` (stereo partly shown) [Compound 44] was tested, and the “SSTR5 Inhib 10 uM %” value was 94%.
`CSC1O[C@H](COCc2ccccc2)[C@@H](O)[C@@H](OCc2ccc(Cl)cc2)[C@H]1NC(=O)CNC(=N)N` (stereo partly shown) [Compound 45] was tested, and the “SSTR5 Inhib 10 uM %” value was 93%.
For `COC[C@H]1OC(OCc2ccccc2)[C@H](NC(=O)CCCN)[C@H](OCc2ccc(-c3ccccc3)cc2)[C@@H]1O` (stereo partly shown) [Compound 46], the “SSTR5 Inhib 10 uM %” value was 93%.
With `COC[C@H]1OC(OCc2ccc3ccccc3c2)[C@H](NC(=O)CCCN)[C@@H](OCc2ccc(Cl)cc2)[C@@H]1O` (stereo partly shown) [Compound 47] the “SSTR5 Inhib 10 uM %” value was 93%.
`COC[C@H]1OC(OCc2ccc(Cl)cc2)[C@H](NC(=O)CCCN)[C@@H](OCc2ccc3ccccc3c2)[C@@H]1O` (stereo partly shown) [Compound 48] was tested, and the “SSTR5 Inhib 10 uM %” value was 92%.
For `CSC1O[C@H](COCc2ccc(Cl)cc2)[C@@H](O)[C@@H](OCc2ccc3ccccc3c2)[C@H]1NC(=O)CCCNC(=N)N` (stereo partly shown) [Compound 49], the “SSTR5 Inhib 10 uM %” value was 92%.
With `COC[C@H]1OC(OCc2ccc(Cl)cc2)[C@H](NC(=O)CCNC(=N)N)[C@H](OCc2ccc3ccccc3c2)[C@@H]1O` (stereo partly shown) [Compound 50] the “SSTR5 Inhib 10 uM %” value was 92%.
